Earlier results on one compound are cited in PubChem BioAssay AID1259409 (Chemical Carcinogenesis Research Information System (CCRIS), 2018).

The structures appear in SMILES notation.

This series concerns rodent chemically induced tumor inhibition, incidence and multiplicity. Description: CCRIS tumor inhibitor studies. The following applies: Carcinogen: 2,2'-DIHYDROXY-DI-N-PROPYLNITROSAMINE, 53609-64-6, 13147-25-6, Carcinogen: 2,2'-DIHYDROXY-DI-N-PROPYLNITROSAMINE, 53609-64-6, 13147-25-6, Dose [Inhibitor]: 0, Route [Inhibitor]: ORAL, Species: RAT, Strain/Sex: F344/MALE, Promoter: NONE USED.

For the compound `O=C(OC[C@@H]1O[C@H](OC(=O)c2cc(O)c(O)c(OC(=O)c3cc(O)c(O)c(O)c3)c2)[C@@H](OC(=O)c2cc(O)c(O)c(OC(=O)c3cc(O)c(O)c(O)c3)c2)[C@H](OC(=O)c2cc(O)c(O)c(OC(=O)c3cc(O)c(O)c(O)c3)c2)[C@H]1OC(=O)c1cc(O)c(O)c(OC(=O)c2cc(O)c(O)c(O)c2)c1)c1cc(O)c(O)c(OC(=O)c2cc(O)c(O)c(O)c2)c1`, the “tumour outcome (control, treated, inhibition, significance)” value runs as follows: (N-ETHYL-N-HYDROXYETHYL- NITROSAMINE, 3,2'-DIMETHYL-4-, N-ETHYL-N-HYDROXYETHYL- NITROSAMINE, 3,2'-DIMETHYL-4-, 1% IN DIET BEGINNING 1 WK POST LAST CARCINOGEN DOSE AND CONTINUING FOR 32 WK (STUDY DURATION: 36 WK), Target Tissue: Type of Lesion: LARGE INTESTINE: ADENOMA, Dose [Carcinogen]: 1000 MG/KG IP DHPN 2X, 1500 MG/KG GAV EHEN 2X AND 75 MG/KG SC DMAB GIVEN OVER THE INITIAL 3 WK PERIOD AT 3-4 D INTERVALS) 7/14 (50%), 2/12 (17%), 66%, not calculated; (N-ETHYL-N-HYDROXYETHYL- NITROSAMINE, 3,2'-DIMETHYL-4-, N-ETHYL-N-HYDROXYETHYL- NITROSAMINE, 3,2'-DIMETHYL-4-, 1% IN DIET BEGINNING 1 WK POST LAST CARCINOGEN DOSE AND CONTINUING FOR 32 WK (STUDY DURATION: 36 WK), Target Tissue: Type of Lesion: LARGE INTESTINE: CARCINOMA, Dose [Carcinogen]: 1000 MG/KG IP DHPN 2X, 1500 MG/KG GAV EHEN 2X AND 75 MG/KG SC DMAB 3X GIVEN OVER THE INITIAL 3 WK AT 3-4 D INTERVALS) 3/14 (21%), 1/12 (8%), 62%, not calculated; (N-ETHYL-N-HYDROXYETHYL- NITROSAMINE, 3,2'-DIMETHYL-4-, N-ETHYL-N-HYDROXYETHYL- NITROSAMINE, 3,2'-DIMETHYL-4-, 1% IN DIET BEGINNING 1 WK POST LAST CARCINOGEN DOSE AND CONTINUING FOR 32 WK (STUDY DURATION: 36 WK), Target Tissue: Type of Lesion: LUNG: ADENOMA, Dose [Carcinogen]: 1000 MG/KG IP DHPN 2X, 1500 MG/KG GAV EHEN 2X AND 75 MG/KG SC DMAB 3X GIVEN OVER THE INITIAL 3 WK AT 3-4 D INTERVALS) 7/14 (50%), 7/12 (58%), -16%, not calculated; (N-ETHYL-N-HYDROXYETHYL- NITROSAMINE, 3,2'-DIMETHYL-4-, N-ETHYL-N-HYDROXYETHYL- NITROSAMINE, 3,2'-DIMETHYL-4-, 1% IN DIET BEGINNING 1 WK POST LAST CARCINOGEN DOSE AND CONTINUING FOR 32 WK (STUDY DURATION: 36 WK), Target Tissue: Type of Lesion: LUNG: CARCINOMA, Dose [Carcinogen]: 1000 MG/KG IP DHPN 2X, 1500 MG/KG GAV EHEN 2X AND 75 MG/KG SC DMAB 3X GIVEN OVER THE INITIAL 3 WK PERIOD AT 3-4 D INTERV) 1/14 (7%), 2/12 (17%), -143%, not calculated; (N-ETHYL-N-HYDROXYETHYL- NITROSAMINE, 3,2'-DIMETHYL-4-, N-ETHYL-N-HYDROXYETHYL- NITROSAMINE, 3,2'-DIMETHYL-4-, 1% IN DIET BEGINNING 1 WK POST LAST CARCINOGEN DOSE AND CONTINUING FOR 32 WK (STUDY DURATION: 36 WK), Target Tissue: Type of Lesion: URINARY BLADDER: CARCINOMA, Dose [Carcinogen]: 1000 MG/KG IP DHPN 2X, 1500 MG/KG GAV EHEN 2X AND 75 MG/KG SC DMAB 3X GIVEN OVER THE INITIAL 3 WK PERIOD AT 3-4 D INTERV) 1/14 (7%), 2/12 (17%), -143%, not calculated; (N-ETHYL-N-HYDROXYETHYL- NITROSAMINE, 3,2-DIMETHYL-4-A, N-ETHYL-N-HYDROXYETHYL- NITROSAMINE, 3,2-DIMETHYL-4-A, 1% IN DIET BEGINNING 1 WK POST LAST CARCINOGEN DOSE AND CONTINUING FOR 32 WK (STUDY DURATION: 36 WK), Target Tissue: Type of Lesion: LIVER: HEPATOCELLULAR CARCINOMA, Dose [Carcinogen]: 100 MG/KG IP DHPN 2X, 1500 MG/KG GAV EHEN 2X AND 75 MG/KG SC DMAB 3X GIVEN OVER THE INITIAL 3 WK PERIOD AT 3-4 D INTERVA) 6/14 (43%), 3/12 (25%), 42%, not calculated. In addition, the “tumour outcome (control, treated, inhibition, significance)” value is 6/10 (60%), 6/12 (50%), 17%, not significant (N-ETHYL-N-HYDROXYETHYLNITROSAMINE, 3,2'-DIMETHYL-1,4-, N-ETHYL-N-HYDROXYETHYLNITROSAMINE, 3,2'-DIMETHYL-1,4-, 1% IN DIET FOR 4 WK BEGINNING 1 D PRIOR TO FIRST CARCINOGEN DOSE (STUDY DURATION: 36 WK), Target Tissue: Type of Lesion: KIDNEY: ADENOMA, Dose [Carcinogen]: 1000 MG/KG BW DHPN TWICE, 1500 MG/KG THEN TWICE, 75 MG/KG BW DMAB 3 TIMES, SEQUENTIALLY OVER 3 WK); 5/10 (50%), 7/12 (58%), -16%, not significant (N-ETHYL-N-HYDROXYETHYLNITROSAMINE, 3,2'-DIMETHYL-1,4-, N-ETHYL-N-HYDROXYETHYLNITROSAMINE, 3,2'-DIMETHYL-1,4-, 1% IN DIET FOR 4 WK BEGINNING 1 D PRIOR TO FIRST CARCINOGEN DOSE (STUDY DURATION: 36 WK), Target Tissue: Type of Lesion: LUNG: ADENOMA, Dose [Carcinogen]: 1000 MG/KG BW DHPN TWICE, 1500 MG/KG THEN TWICE, 75 MG/KG BW DMAB 3 TIMES, SEQUENTIALLY OVER 3 WK); 2/14 (14%), 0/12 (0%), 100%, not significant (N-ETHYL-N-HYDROXYETHYLNITROSAMINE, 3,2'-DIMETHYL-4-AMINO-, N-ETHYL-N-HYDROXYETHYLNITROSAMINE, 3,2'-DIMETHYL-4-AMINO-, 1% IN DIET FOR 32 WK BEGINNING 1 WK POST CARCINOGEN TREATMENT (STUDY DURATION: 36 WK), Target Tissue: Type of Lesion: KIDNEY: NEPHROBLASTOMA, Dose [Carcinogen]: 1000 MG/KG BW DHPN TWICE, 1500 MG/KG BW THEN TWICE, 75 MG/KG BW DMAB 3 TIMES ADMINISTERED OVER FIRST 3 WK). Besides, the outcome (N-ETHYL-N-HYDROXYETHYL- NITROSAMINE, 3,2'-DIMETHYL-4-, N-ETHYL-N-HYDROXYETHYL- NITROSAMINE, 3,2'-DIMETHYL-4-, 1% IN DIET BEGINNING 1 WK POST LAST CARCINOGEN DOSE AND CONTINUING FOR 32 WK (STUDY DURATION: 36 WK), Target Tissue: Type of Lesion: URINARY BLADDER: PAPILLOMA, Dose [Carcinogen]: 1000 MG/KG IP DHPN 2X, 1500 MG/KG GAV EHEN 2X AND 75 MG/KG SC DMAB 3X GIVEN OVER THE INITIAL 3 WK PERIOD AT 3-4 D INTERV) was 0/14 (0%), 3/12 (25%), -100%, not calculated.
